Laboratory results as given in patent US12569434B2, “Formulations of Nebivolol” (EXTROVIS AG, priority 2020, dated 2026).

Key:
[1] = type: physicochemical; conditions: solution in propylene glycol, pH 3 to 7, 50° C. for 1M and 40° C./75% RH for 6M
Procedure: To evaluate the stability of Nebivolol in suitable liquid vehicle or solubilizer at different pH conditions, pH stability study was performed using 0.1N HCL/0.1N NaOH for pH adjustment. Propylene glycol was used as solubilizer to dissolve Nebivolol to prepare the stock solution. The stock solution was added to water and adjusted the pH with 0.1N HCL/0.1N NaOH at different pH ranging from 3 to 7.

[2] = type: physicochemical; conditions: open air exposure, 50° C. for 2 Weeks and 40° C./7.5% RH for 1 month
Procedure: Drug-Excipient compatibility study was carried with excipients such as mannitol, maltitol, dextrates, povidone, methyl paraben, propyl paraben, citric acid, sodium citrate, sodium saccharin. The study was carried out in clear glass vials with open air exposure at stress conditions 50° C. for 2 Weeks and 40° C./[…] (relative humidity) for 1 month.

Compound: Cl.OC(CNCC(O)C1CCc2cc(F)ccc2O1)C1CCc2cc(F)ccc2O1 (racemic) [Nebivolol HCl, (1RS,1′RS)-1,1′-[(2RS,2′SR)-bis(6-fluoro-3,4-dihydro-2H-1-benzopyran-2-yl)]-2,2′-iminodiethanol hydrochloride]
- Stability of Nebivolol [1]: stable
- desfluoro Nebivolol impurity [1]: within the specification limits
- Stability of Nebivolol with excipients [2]: stable
- desfluoro impurity [2]: within the specification limits
